Reference: patent publication US8741836B2, “Polypeptides” (Novo Nordisk A/S, priority 2011, dated 2014)
Starred links: 1 amine or outer side, 2 acyl side, 3 side chain; linkers in the order of their positions; H or OH if unused. Positions of bridges follow the written chain, without caps; N, C: chain ends. Residues, ends and D or L forms follow the SMILES beside them. *: point of attachment. C20 diacid = O=C(O)CCCCCCCCCCCCCCCCCCC(=O)*; γGlu = O=C(O)[C@H](CCC(=O)[*:2])N[*:1]

Assay: Assay (III) ThT fibrillation assay for physical stability
Format: physicochemical
Conditions: for ThT pH 4.0 lag time: pH 4.0, ThT fibrillation assay
Summary of the method: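 Freshly prepared, pH-adjusted formulations with 1 μM ThT incubated at 37 °C under 960 rpm orbital shaking (1 mm), fluorescence (ex 444, em 485 nm) read every 20 min. […] Peptide content before and after measured by reverse-phase HPLC against pramlintide standard.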

Structure (SMILES) | ThT pH 4.0 lag time (physical stability in fibrillogenesis assay) [h] | ThT pH 4.0 lag time [h]
CC[C@H](C)[C@H](NC(=O)[C@@H]1CCCN1C(=O)CNC(=O)[C@H](Cc1ccccc1)NC(=O)[C@H](CC(N)=O)NC(=O)[C@H](CC(N)=O)NC(=O)[C@H](CO)NC(=O)[C@H](CO)NC(=O)[C@H](Cc1c[nH]cn1)NC(=O)[C@H](Cc1c[nH]cn1)NC(=O)[C@H](CC(C)C)NC(=O)[C@H](Cc1ccccc1)NC(=O)[C@H](CCC(=O)O)NC(=O)[C@H](C)NC(=O)[C@H](CC(C)C)NC(=O)[C@H](CCCCN)NC(=O)[C@H](CCC(N)=O)NC(=O)[C@@H](NC(=O)[C@H](C)NC(=O)[C@@H]1CSSC[C@H](NC(=O)[C@H](CCCCN)NC(=O)CC[C@H](NC(=O)CCCCCCCCCCCCCCCCCCC(=O)O)C(=O)O)C(=O)N[C@@H](CC(N)=O)C(=O)N[C@@H]([C@@H](C)O)C(=O)N[C@@H](C)C(=O)N[C@@H]([C@@H](C)O)C(=O)N1)[C@@H](C)O)C(=O)N[C@@H](CC(C)C)C(=O)N1CCC[C@H]1C(=O)N1CCC[C@H]1C(=O)N[C@H](C(=O)N[C@@H](CC(N)=O)C(=O)N[C@H](C(=O)NCC(=O)N[C@@H](CO)C(=O)N[C@@H](CC(N)=O)C(=O)N[C@H](C(=O)N1CCC[C@H]1C(N)=O)[C@@H](C)O)C(C)C)[C@@H](C)O [Example 145, N-alpha-[(S)-4-Carboxy-4-(19-carboxynonadecanoylamino)butyryl]-[Lys11,Glu14,His17,Pro37]-pramlintide] ({C20 diacid-γGlu}-KCNTATCATQKLAEFLHHSSNNFGPILPPTNVGSNTP-NH2; disulfide 2-7) | >45 | >45
CC[C@H](C)[C@H](NC(=O)[C@@H]1CCCN1C(=O)CNC(=O)[C@H](Cc1ccccc1)NC(=O)[C@H](CC(N)=O)NC(=O)[C@H](CCC(N)=O)NC(=O)[C@H](CO)NC(=O)[C@H](CO)NC(=O)[C@H](Cc1c[nH]cn1)NC(=O)[C@H](CCCNC(=N)N)NC(=O)[C@H](CC(C)C)NC(=O)[C@H](Cc1ccccc1)NC(=O)[C@H](CCC(=O)O)NC(=O)[C@H](C)NC(=O)[C@H](CC(C)C)NC(=O)[C@H](CCCNC(=N)N)NC(=O)[C@H](CCC(N)=O)NC(=O)[C@@H](NC(=O)[C@H](C)NC(=O)[C@@H]1CSSC[C@H](NC(=O)[C@H](CCC(=O)O)NC(=O)[C@H](CCCNC(=N)N)NC(=O)[C@H](CCC(=O)O)NC(=O)CC[C@H](NC(=O)CCCCCCCCCCCCCCCCCCC(=O)O)C(=O)O)C(=O)N[C@@H](CC(N)=O)C(=O)N[C@@H]([C@@H](C)O)C(=O)N[C@@H](C)C(=O)N[C@@H]([C@@H](C)O)C(=O)N1)[C@@H](C)O)C(=O)N[C@@H](CC(C)C)C(=O)N1CCC[C@H]1C(=O)N1CCC[C@H]1C(=O)N[C@H](C(=O)N[C@@H](CCC(N)=O)C(=O)N[C@H](C(=O)NCC(=O)N[C@@H](CO)C(=O)N[C@@H](CCC(N)=O)C(=O)N[C@H](C(=O)N1CCC[C@H]1C(N)=O)[C@@H](C)O)C(C)C)[C@@H](C)O [Example 163, N-alpha-[(S)-4-Carboxy-4-(19-carboxynonadecanoylamino)butyryl]-Glu-Arg-[Glu1,Glu14,Arg17,Gln21,Gln31,Gln35,Pro37]-pramlintide] ({C20 diacid-γGlu}-ERECNTATCATQRLAEFLRHSSQNFGPILPPTQVGSQTP-NH2; disulfide 4-9 (inferred)) | >45 | >45
CC[C@H](C)[C@H](NC(=O)[C@@H]1CCCN1C(=O)CNC(=O)[C@H](Cc1ccccc1)NC(=O)[C@H](CC(N)=O)NC(=O)[C@H](CCC(N)=O)NC(=O)[C@H](CO)NC(=O)[C@H](CO)NC(=O)[C@H](Cc1c[nH]cn1)NC(=O)[C@H](Cc1c[nH]cn1)NC(=O)[C@H](CC(C)C)NC(=O)[C@H](Cc1ccccc1)NC(=O)[C@H](CCC(=O)O)NC(=O)[C@H](C)NC(=O)[C@H](CC(C)C)NC(=O)[C@H](CCCNC(=N)N)NC(=O)[C@H](CCC(N)=O)NC(=O)[C@@H](NC(=O)[C@H](C)NC(=O)[C@@H]1CSSC[C@H](NC(=O)[C@H](CCCCN)NC(=O)CC[C@H](NC(=O)CCCCCCCCCCCCCCCCCCC(=O)O)C(=O)O)C(=O)N[C@@H](CC(N)=O)C(=O)N[C@@H]([C@@H](C)O)C(=O)N[C@@H](C)C(=O)N[C@@H]([C@@H](C)O)C(=O)N1)[C@@H](C)O)C(=O)N[C@@H](CC(C)C)C(=O)N1CCC[C@H]1C(=O)N1CCC[C@H]1C(=O)N[C@H](C(=O)N[C@@H](CC(N)=O)C(=O)N[C@H](C(=O)NCC(=O)N[C@@H](CO)C(=O)N[C@@H](CC(N)=O)C(=O)N[C@H](C(=O)N1CCC[C@H]1C(N)=O)[C@@H](C)O)C(C)C)[C@@H](C)O [Example 130, N-alpha-[(S)-4-Carboxy-4-(19-carboxynonadecanoylamino)butyryl]-[Glu14,His17,Gln21,Pro37]-pramlintide] ({C20 diacid-γGlu}-KCNTATCATQRLAEFLHHSSQNFGPILPPTNVGSNTP-NH2; disulfide 2-7) | >45 | >45

Further lines, results first:

ThT pH 4.0 lag time (physical stability in fibrillogenesis assay) [h] | ThT pH 4.0 lag time [h] | Structure (SMILES)
– | 28 | CC[C@H](C)[C@H](NC(=O)[C@@H]1CCCN1C(=O)CNC(=O)[C@H](Cc1ccccc1)NC(=O)[C@H](CC(N)=O)NC(=O)[C@H](CC(N)=O)NC(=O)[C@H](CO)NC(=O)[C@H](CO)NC(=O)[C@H](Cc1c[nH]cn1)NC(=O)[C@H](Cc1c[nH]cn1)NC(=O)[C@H](CC(C)C)NC(=O)[C@H](Cc1ccccc1)NC(=O)[C@H](CCC(=O)O)NC(=O)[C@H](C)NC(=O)[C@H](CC(C)C)NC(=O)[C@H](CCCNC(=N)N)NC(=O)[C@H](CCC(N)=O)NC(=O)[C@@H](NC(=O)[C@H](C)NC(=O)[C@@H]1CSSC[C@H](NC(=O)CC[C@H](NC(=O)CCCCCCCCCCCCCCCCCCC(=O)O)C(=O)O)C(=O)N[C@@H](CC(N)=O)C(=O)N[C@@H]([C@@H](C)O)C(=O)N[C@@H](C)C(=O)N[C@@H]([C@@H](C)O)C(=O)N1)[C@@H](C)O)C(=O)N[C@@H](CC(C)C)C(=O)N1CCC[C@H]1C(=O)N1CCC[C@H]1C(=O)N[C@H](C(=O)N[C@@H](CC(N)=O)C(=O)N[C@H](C(=O)NCC(=O)N[C@@H](CO)C(=O)N[C@@H](Cc1c[nH]cn1)C(=O)N[C@H](C(=O)N[C@@H](Cc1ccc(O)cc1)C(N)=O)[C@@H](C)O)C(C)C)[C@@H](C)O [Example 75, N-alpha-[(S)-4-Carboxy-4-(19-carboxynonadecanoylamino)butyryl]-[des1,Glu14,His17,His35]-pramlintide] ({C20 diacid-γGlu}-CNTATCATQRLAEFLHHSSNNFGPILPPTNVGSHTY-NH2; disulfide 1-6)
– | 26 | CC[C@H](C)[C@H](NC(=O)[C@@H]1CCCN1C(=O)CNC(=O)[C@H](Cc1ccccc1)NC(=O)[C@H](CC(N)=O)NC(=O)[C@H](CC(N)=O)NC(=O)[C@H](CO)NC(=O)[C@H](CO)NC(=O)[C@H](Cc1c[nH]cn1)NC(=O)[C@H](Cc1c[nH]cn1)NC(=O)[C@H](CC(C)C)NC(=O)[C@H](Cc1ccccc1)NC(=O)[C@H](CCC(=O)O)NC(=O)[C@H](C)NC(=O)[C@H](CC(C)C)NC(=O)[C@H](CCCNC(=N)N)NC(=O)[C@H](CCC(N)=O)NC(=O)[C@@H](NC(=O)[C@H](C)NC(=O)[C@@H]1CSSC[C@H](NC(=O)[C@H](CCCNC(=N)N)NC(=O)CNC(=O)CC[C@H](NC(=O)CCCCCCCCCCCCCCCCCCC(=O)O)C(=O)O)C(=O)N[C@@H](CC(N)=O)C(=O)N[C@@H]([C@@H](C)O)C(=O)N[C@@H](C)C(=O)N[C@@H]([C@@H](C)O)C(=O)N1)[C@@H](C)O)C(=O)N[C@@H](CC(C)C)C(=O)N1CCC[C@H]1C(=O)N1CCC[C@H]1C(=O)N[C@H](C(=O)N[C@@H](CC(N)=O)C(=O)N[C@H](C(=O)NCC(=O)N[C@@H](CO)C(=O)N[C@@H](Cc1c[nH]cn1)C(=O)N[C@H](C(=O)N[C@@H](Cc1ccc(O)cc1)C(N)=O)[C@@H](C)O)C(C)C)[C@@H](C)O [Example 100, N-alpha-[(S)-4-Carboxy-4-(19-carboxynonadecanoylamino)butyryl]-Gly-[Arg1,Glu14,His17,His35]-pramlintide] ({C20 diacid-γGlu}-GRCNTATCATQRLAEFLHHSSNNFGPILPPTNVGSHTY-NH2; disulfide 3-8 (inferred))
– | >45 | CC[C@H](C)[C@H](NC(=O)[C@@H]1CCCN1C(=O)CNC(=O)[C@H](Cc1ccccc1)NC(=O)[C@H](CC(N)=O)NC(=O)[C@H](CC(N)=O)NC(=O)[C@H](CO)NC(=O)[C@H](CO)NC(=O)[C@H](Cc1c[nH]cn1)NC(=O)[C@H](Cc1c[nH]cn1)NC(=O)[C@H](CC(C)C)NC(=O)[C@H](Cc1ccccc1)NC(=O)[C@H](CCC(=O)O)NC(=O)[C@H](C)NC(=O)[C@H](CC(C)C)NC(=O)[C@H](CCCNC(=N)N)NC(=O)[C@H](CCC(N)=O)NC(=O)[C@@H](NC(=O)[C@H](C)NC(=O)[C@@H]1CSSC[C@H](NC(=O)[C@H](CCCCN)NC(=O)[C@H](Cc2c[nH]cn2)NC(=O)CC[C@H](NC(=O)CCCCCCCCCCCCCCCCCCC(=O)O)C(=O)O)C(=O)N[C@@H](CC(N)=O)C(=O)N[C@@H]([C@@H](C)O)C(=O)N[C@@H](C)C(=O)N[C@@H]([C@@H](C)O)C(=O)N1)[C@@H](C)O)C(=O)N[C@@H](CC(C)C)C(=O)N1CCC[C@H]1C(=O)N1CCC[C@H]1C(=O)N[C@H](C(=O)N[C@@H](CC(N)=O)C(=O)N[C@H](C(=O)NCC(=O)N[C@@H](CO)C(=O)N[C@@H](Cc1c[nH]cn1)C(=O)N[C@H](C(=O)N[C@@H](Cc1ccc(O)cc1)C(N)=O)[C@@H](C)O)C(C)C)[C@@H](C)O [Example 66, N-alpha-[(S)-4-Carboxy-4-(19-carboxynonadecanoylamino)butyryl]-His-[Glu14,His17,His35]-pramlintide] ({C20 diacid-γGlu}-HKCNTATCATQRLAEFLHHSSNNFGPILPPTNVGSHTY-NH2; disulfide 3-8)
